# Measured values taken from patent US12065654B2, “Plants having increased tolerance to herbicides” (BASF SE, priority 2014, dated 2024).
# What was measured:
# [1] = test system: Arabidopsis overexpression line Arabidopsis M335H; assay: Germination assay in 48-well plates; format: in vivo, Arabidopsis thaliana; settings: IC50 transgenic / wildtype, mean of 5 T2 events
# Method: (§1) Depending on the species, the plants are kept at 10-25° C. or 20-35° C. The test period extends over 3 weeks. During this time, the plants are tended and their response to the individual treatments is evaluated. Herbicide injury evaluations are taken at 2 and 3 weeks after treatment. Plant injury is rated on a scale of 0 to 9, 0 being no injury and 9 being complete death. Tolerance to HPPD-inhibiting, preferably pyrazolone, isoxazole, or triketone derivative herbicides can also be assessed in Arabidopsis. In this case transgenic Arabidopsis thaliana plants are assayed for improved tolerance to HPPD-inhibiting, preferably pyrazolone, isoxazole, or triketone derivative herbicides in 48-well plates. Seeds are surface sterilized by stirring for 5 min in ethanol+water (70+30 by volume), rinsing one time with ethanol+water (70+30 by volume) and two times with a sterile, deionized water. The seeds are resuspended in 0.1% agar dissolved in water (w/v). Four to five seeds per well are plated on solid nutrient medium consisting of half-strength Murashige Skoog nutrient solution, pH 5.8 (Murashige and Skoog (1962) Physiologia Plantarum 15: 473-497). Compounds are dissolved in dimethylsulfoxid (DMSO) and added to the medium prior solidification (final DMSO concentration 0.1%). Multi well plates are incubated in a growth chamber at 22° C., 75% relative humidity and 110 μmol Phot*m−2*s−1 with 14:10 h light:dark photoperiod. Seven to ten days after seeding growth inhibition is evaluated by comparison to wild type plants. Tolerance factor is calculated by dividing the plant growth IC50 value of transgenic plants containing a HPPD and/or HST sequence by that of wildtype plants.
# [2] = test system: Arabidopsis overexpression line Rhodococcus HPPD2; assay: Germination assay in 48-well plates; format: in vivo, Arabidopsis thaliana; settings: IC50 transgenic / wildtype, mean of 5 T2 events
# Method: as §1
# [3] = test system: Arabidopsis overexpression line Arabidopsis M335H, P336A, E363Q; assay: Germination assay in 48-well plates; format: in vivo, Arabidopsis thaliana; settings: IC50 transgenic / wildtype, mean of 5 T2 events
# Method: as §1
# [4] = test system: Arabidopsis overexpression line Arabidopsis F381I; assay: Germination assay in 48-well plates; format: in vivo, Arabidopsis thaliana; settings: IC50 transgenic / wildtype, mean of 5 T2 events
# Method: as §1
# [5] = test system: Arabidopsis overexpression line Hordeum L320Q; assay: Germination assay in 48-well plates; format: in vivo, Arabidopsis thaliana; settings: IC50 transgenic / wildtype, mean of 5 T2 events
# Method: as §1
# [6] = test system: Arabidopsis overexpression line Picrophilus HPPD; assay: Germination assay in 48-well plates; format: in vivo, Arabidopsis thaliana; settings: IC50 transgenic / wildtype, mean of 5 T2 events
# Method: as §1
# [7] = test system: Arabidopsis overexpression line Hordeum L320H, P321A; assay: Germination assay in 48-well plates; format: in vivo, Arabidopsis thaliana; settings: IC50 transgenic / wildtype, mean of 5 T2 events
# Method: as §1
# [8] = test system: HPPD enzymes from different organisms; assay: HPPD activity assay, summary statement; format: biochemical; settings: all HPPD enzymes from different organisms of Table 12
# Method: The activity assay for HPPD is based on the analysis of homogentisic acid by reversed phase HPLC.
# The assay mixture can contain 150 mM potassium phosphate buffer pH 7.0, 50 mM L-ascorbic acid, 100 μM Catalase (Sigma-Aldrich), 1 μM FeSO4 and 0.2 units of purified HPPD enzyme in a total volume of 505 μl. 1 unit is defined as the amount of enzyme that is required to produce 1 nmol of HGA per minute at 20° C.
# The reaction is allowed to proceed for 45 min at room temperature. The reaction is stopped by the addition of 50 μl of 4.5 M phosphoric acid. The sample is filtered using a […] pore size PVDF filtration device. 5 μl of the cleared sample is analyzed on an UPLC HSS T3 column (particle size 1.8 μm, dimensions 2, 1×50 mm; Waters) by isocratic elution using 90% 20 mM NaH2PO4 pH 2.2, 10% methanol (v/v).
# HGA is detected electrochemically at 750 mV (mode: DC; polarity: positive) and quantified by integrating peak areas (Empower software; Waters).
# Inhibitors are dissolved in DMSO (dimethylsulfoxide) to a concentration of 0.5 mM. From this stock solution serial five-fold dilutions are prepared in DMSO, which are used in the assay. The respective inhibitor solution accounts for 1% of the assay volume. Thus, final inhibitor concentrations range from 5 μM to 320 pM, respectively. […] IC50 values are calculated using non-linear regression. […]
# [9] = test system: transgenic soybean plants AtHPPD M335Y, event SDS-9866; assay: Greenhouse testing of soybean plants; format: in vivo, Glycine max; settings: soybean AtHPPD M335Y SDS-9866, 14 days, average of 8 T1 individuals
# Method: Transgenic plants expressing heterologous HPPD or HST enzymes are tested for tolerance against HPPD-inhibiting, preferably pyrazolone, isoxazole, or triketone derivative herbicides in greenhouse experiments.
# For post emergence treatment, the test plants are first grown to a height of 3 to 15 cm, depending on the plant habit, and only then treated with the herbicides. For this purpose, the test plants are either sown directly and grown in the same containers, or they are first grown separately and transplanted into the test containers a few days prior to treatment.
# For testing of T0 plants, cuttings can be used. In the case of soybean plants, an optimal shoot for cutting is about 7.5 to 10 cm tall, with at least two nodes present. Each cutting is taken from the original transformant (mother plant) and dipped into rooting hormone powder (indole-3-butyric acid, IBA). The cutting is then placed in oasis wedges inside a bio-dome. Wild type cuttings are also taken simultaneously to serve as controls. The cuttings are kept in the bio-dome for 5-7 days and then transplanted to pots and then acclimated in the growth chamber for two more days. Subsequently, the cuttings are transferred to the greenhouse, acclimated for approximately 4 days, and then subjected to spray tests as indicated.
# as §1
# Transgenic soy plants were sprayed with a range of doses from 6.25-100 g/ha with an HPPD-inhibiting herbicide and injury evaluations were taken two weeks after treatment. […] Compared to the untransformed wild-type, plants comprising polynucleotides encoding for Arabidopsis HPPD wild-type or mutated versions thereof were less susceptible to Inhibitor 1.
structure (smiles),measurement,setting,value
"Cc1c(C(=O)c2cnn(C)c2O)ccc(S(C)(=O)=O)c1C1=NOCC1 [Inhibitor 1, [3-(4,5-dihydroisoxazol-3-yl)-2-methyl-4-methylsulfonyl-phenyl]-(5-hydroxy-1-methyl-pyrazol-4-yl)methanone]",Tolerance factor,[1],10
same,Tolerance factor,[2],32
same,Tolerance factor,[3],25
same,Tolerance factor,[4],90
same,Tolerance factor,[5],100
same,Tolerance factor,[6],10
same,Tolerance factor,[7],300
same,fold more resistant in respect to the reference SEQ ID NO:53,[8],at least 1.7 fold
same,"Injury evaluation (bleaching phenotype, scale of 1-100)",[9]; 6.25 g/ha,0%
same,"Injury evaluation (bleaching phenotype, scale of 1-100)",[9]; 25 g/ha,11%
same,"Injury evaluation (bleaching phenotype, scale of 1-100)",[9]; 100 g/ha,31%
